From ChEMBL document CHEMBL1153068, “Discriminatory synergistic effect of Trp-substitutions in superagonist [(Arg/Lys)(14), (Arg/Lys)(15)]nociceptin on ORL1 receptor binding and activation” (Bioorg Med Chem, 2009)

Key:
[1] = biological target: Nociceptin receptor (Rattus norvegicus) (UniProt P35370); test: Relative potency, ratio of wild type nociceptin IC50 to compound IC50 for rat ORL1 receptor expressed in african green monkey COS7 cells; type: cell-based; conditions: COS-7
[2] = biological target: Nociceptin receptor (Rattus norvegicus) (UniProt P35370); test: Relative potency, ratio of wild type nociceptin EC50 to compound EC50 for stimulation of [35S]GTPgammaS binding to rat ORL1 receptor expressed in african green monkey COS7 cells; type: functional, cell-based; conditions: COS-7
[3] = biological target: T1, Nociceptin receptor (Rattus norvegicus, UniProt P35370); test: Displacement of [3H]nociceptin from rat ORL1 receptor expressed in african green monkey COS7 cells by competitive binding assay; type: cell-based, COS-7
[4] = biological target: T1, Nociceptin receptor; test: Agonist activity at rat ORL1 receptor expressed in african green monkey COS7 cells assessed as stimulation of [35S]GTPgammaS binding by radioligand receptor-binding assay; type: functional, cell-based, COS-7

T1 sequence (P35370 whole entry): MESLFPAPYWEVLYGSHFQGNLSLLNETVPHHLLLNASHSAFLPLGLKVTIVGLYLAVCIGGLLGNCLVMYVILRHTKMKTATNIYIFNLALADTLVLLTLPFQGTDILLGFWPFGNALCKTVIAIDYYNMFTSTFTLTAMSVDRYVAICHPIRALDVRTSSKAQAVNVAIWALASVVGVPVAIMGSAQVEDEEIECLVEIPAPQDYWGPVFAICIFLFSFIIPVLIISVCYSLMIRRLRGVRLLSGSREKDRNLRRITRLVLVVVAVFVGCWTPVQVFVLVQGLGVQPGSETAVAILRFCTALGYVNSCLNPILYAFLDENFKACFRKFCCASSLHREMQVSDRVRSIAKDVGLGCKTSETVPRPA
Nociceptin receptor (Rattus norvegicus), sequence (P35370 whole entry): as above

| Compound | Ratio IC50 [1] | Ratio EC50 [2] | IC50 [3] | EC50 [4] |
| --- | --- | --- | --- | --- |
| C[C@H](NC(=O)CNC(=O)[C@@H](NC(=O)[C@H](Cc1ccccc1)NC(=O)CNC(=O)CNC(=O)[C@@H](N)Cc1ccccc1)[C@@H](C)O)C(=O)N[C@@H](CCCNC(=N)N)C(=O)N[C@@H](CCCCN)C(=O)N[C@@H](CO)C(=O)N[C@@H](C)C(=O)N[C@@H](CCCNC(=N)N)C(=O)N[C@@H](CCCCN)C(=O)N[C@@H](CCCNC(=N)N)C(=O)N[C@@H](CCCCN)C(=O)N[C@@H](CC(N)=O)C(=O)N[C@@H](CCC(N)=O)C(=O)O | 3.48 | 11.8 |  |  |
| H-FGGFTGARKSARKKWNQ-OH | 2.35 | 4.06 | 0.31 nM | 3.2 nM |
| H-FGGFTGARKSARKLWNQ-OH | 0.35 | 0.26 |  |  |
| H-FGGFTGARKSARKRWNQ-OH | 2.43 | 4.19 | 0.3 nM | 3.1 nM |
| H-FGGFTGARKSARKWANQ-OH | 1.78 | 2.24 |  |  |
| H-FGGFTGARKSARKWKNQ-OH [listing 1 of 2 here] |  |  | 0.25 nM | 1.3 nM |
| H-FGGFTGARKSARKWKNQ-OH [listing 2 of 2 here] | 2.92 | 10 |  |  |
| H-FGGFTGARKSARKWRNQ-OH | 3.17 | 10 | 0.23 nM | 1.3 nM |
